The structures appear in SMILES notation. pIC50: −log10 of the molar value.

T1 sequence (Q06187 whole entry): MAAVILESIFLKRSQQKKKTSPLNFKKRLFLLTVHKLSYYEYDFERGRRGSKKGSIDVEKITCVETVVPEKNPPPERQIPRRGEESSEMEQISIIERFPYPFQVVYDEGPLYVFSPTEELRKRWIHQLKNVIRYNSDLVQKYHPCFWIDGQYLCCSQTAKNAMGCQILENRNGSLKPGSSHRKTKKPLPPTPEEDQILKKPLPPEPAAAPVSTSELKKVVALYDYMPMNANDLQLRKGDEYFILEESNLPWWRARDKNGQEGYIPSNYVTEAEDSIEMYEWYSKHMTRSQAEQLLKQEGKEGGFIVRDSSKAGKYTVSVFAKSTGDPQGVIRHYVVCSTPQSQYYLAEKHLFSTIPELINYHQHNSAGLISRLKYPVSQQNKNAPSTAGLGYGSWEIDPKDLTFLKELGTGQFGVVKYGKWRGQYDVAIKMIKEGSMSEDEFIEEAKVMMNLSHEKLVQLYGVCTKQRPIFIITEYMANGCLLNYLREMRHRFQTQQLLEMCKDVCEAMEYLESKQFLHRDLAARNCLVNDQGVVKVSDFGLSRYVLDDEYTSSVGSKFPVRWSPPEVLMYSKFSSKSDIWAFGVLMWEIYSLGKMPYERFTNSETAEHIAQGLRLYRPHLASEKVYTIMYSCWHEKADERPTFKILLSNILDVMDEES

This test concerns the target T1, BTK (Homo sapiens, UniProt Q06187).
T1 construct: purchased Promega V2941
Description: BTK Kinase Assay (ADP-Glo). It is filed as biochemical. Particulars: BTK enzyme, 50 μM ATP, one hour incubation, ADP-Glo luminescence; read-out: BTK Inhibition. As for the experimental part:
The BTK assay is performed using the BTK Kinase Enzyme System (Promega; Catalog #: V2941) and ADP-Glo™ Kinase Assay kit (Promega; Catalog #: V9101). Measurement were performed in a reaction volume of 5 μL using 384-well assay plate (Corning; Catalog #: 3570). 6 ng BTK enzyme, inhibitor or 1% DMSO, 1 μg Poly(Glu4, Tyr1) peptide, and 50 μM ATP were incubated in a reaction buffer composed of 40 mM Tris-Cl (pH7.5), 20 mM MgCl2, 0.1 mg/mL BSA, 50 μM DTT and 2 mM MnCl2 for one hour. ADP was detected as described in ADP-Glo™ Kinase Assay kit using 5 μl of ADP-Glo™ Reagent and 10 μl of Kinase Detection Reagent. Luminescence was recorded using a multimode plate reader (EnVision® Multilabel Reader, Perkin Elmer). There is a linear relationship between the luminescent signal and the amount of ADP in the reaction buffer. For each compound, enzyme activity was measured at various concentrations of compound, Negative control reactions were performed in the absence of inhibitor in three replicates and six no enzyme controls were used to determine baseline luminescence levels. Dose response curve were generated to determine the concentration required for IC50 of BTK activity.
The compound numbers correspond to the compound numbers in previous Tables. Compounds having an activity designated as “A” provided an IC 50≤10 nM; Compounds having an activity designated as “B” provided an IC50 10-100 nM; Compounds having an activity designated as “C” provided an IC50 100-1000 nM; Compounds having an activity designated as “D” provided an IC50 1000-10000 nM; Compounds having an activity designated as “E” provided an IC50≥10000 nM.
Regarding `Nc1nccn2c(C3CCCC(O)C3)nc(-c3ccc(Oc4ccccc4)cc3)c12` (stereo not drawn) [Compound 1, 3-[8-Amino-1-(4-phenoxy-phenyl)-imidazo[1,5-a]pyrazin-3-yl]-cyclohexanol], the pIC50 was no less than 8.00. With `COc1cccc(Oc2ccc(-c3nc(C4CCC(O)CC4)n4ccnc(N)c34)cc2)c1F` (stereo not drawn) [Compound 2, 4-{8-Amino-1-[4-(2-fluoro-3-methoxy-phenoxy)-phenyl]-imidazo[1,5-a]pyrazin-3-yl}-cyclohexanol], the pIC50 was no less than 8.00. On to `COc1cccc(Oc2ccc(-c3nc([C@@H]4CCC[C@@H](O)C4)n4ccnc(N)c34)cc2)c1F` [Compound 4], for which the pIC50 was no less than 8.00.

Regarding `Nc1nccn2c1c(-c1ccc(Oc3ccccc3)cc1)nc2[C@H]1CC[C@H](O)CC1` [Compound 5, 4-[8-Amino-1-(4-phenoxy-phenyl)-imidazo[1,5-a]pyrazin-3-yl]-cyclohexanol], the pIC50 is no less than 8.00. On to `Nc1nccn2c(C3CCC(O)CC3)nc(-c3ccc(Oc4cccc(Cl)c4F)cc3)c12` (stereo not drawn) [Compound 6, 4-{8-Amino-1-[4-(3-chloro-2-fluoro-phenoxy)-phenyl]-imidazo[1,5-a]pyrazin-3-yl}-cyclohexanol], for which the pIC50 is no less than 8.00. On to `Nc1nccn2c(C3CCC(O)CC3)nc(-c3ccc(Oc4cccc(Cl)c4)cc3)c12` (stereo not drawn) [Compound 7], for which the pIC50 is 7.00 to 8.00. On to `Cc1cccc(Oc2ccc(-c3nc(C4CCC(O)CC4)n4ccnc(N)c34)cc2)c1` (stereo not drawn) [Compound 8, 4-[8-Amino-1-(4-m-tolyloxy-phenyl)-imidazo[1,5-a]pyrazin-3-yl]-cyclohexanol], for which the pIC50 is no less than 8.00.

Regarding `COc1cccc(Oc2ccc(-c3nc(C4CCC(O)CC4)n4ccnc(N)c34)cc2)c1C` (stereo not drawn) [Compound 9, 4-{8-Amino-1-[4-(3-methoxy-2-methyl-phenoxy)-phenyl]-imidazo[1,5-a]pyrazin-3-yl}-cyclohexanol], the pIC50 is 7.00 to 8.00. The figure for `COc1ccccc1C(=O)NCc1ccc(-c2nc(C3CCC(O)CC3)n3ccnc(N)c23)cc1` (stereo not drawn) [Compound 11] is no less than 8.00.

Source of the values: patent publication US12435079B2, “Bruton's tyrosine kinase inhibitors” (priority 2019, dated 2025).
